Legend:
Format in all cases: functional
Rattus norvegicus [1] = test: Antidyslipidemic activity against triton-induced hyperlipidemia in Charles Foster rat assessed as reduction in triglyceride level at 100 mg/kg, po after 18 hrs by spectrophotometry relative to control; design: scale not given: the % may be the effect or the level left
[2] = Antioxidant activity assessed as inhibition non-enzymatic reactants generated superoxide anion at 200 ug/ml by spectrophotometry
[3] = Antioxidant activity assessed as inhibition lipid peroxidation at 200 ug/ml by spectrophotometry
[4] = Antioxidant activity assessed as inhibition non-enzymatic reactants generated hydroxyl radical production at 200 ug/ml by spectrophotometry
Rattus norvegicus [5] = test: Antidyslipidemic activity against triton-induced hyperlipidemia in Charles Foster rat assessed as reduction in total cholesterol level at 100 mg/kg, po after 18 hrs by spectrophotometry relative to control; design: scale not given: the % may be the effect or the level left
Rattus norvegicus [6] = test: Antidyslipidemic activity against triton-induced hyperlipidemia in Charles Foster rat assessed as reduction in phospholipid level at 100 mg/kg, po after 18 hrs by spectrophotometry relative to control; design: scale not given: the % may be the effect or the level left
[7] = Antioxidant activity assessed as inhibition non-enzymatic reactants generated superoxide anion at 20 ug/ml by spectrophotometry
[8] = Antioxidant activity assessed as inhibition non-enzymatic reactants generated hydroxyl radical production at 100 ug/ml by spectrophotometry

Row | SMILES | Activity (Rattus norvegicus [1]) [%] | inhibition [2] [%] | inhibition [3] [%] | inhibition [4] [%] | Activity (Rattus norvegicus [5]) [%] | Activity (Rattus norvegicus [6]) [%] | inhibition [7] [%] | inhibition [8] [%]
1 | Cc1cc2cc(Cl)c(=O)oc2c2ccccc12 | 26 | 32 | 38 | 49 | 27 | 26 | – | –
2 | Oc1ncnc2[nH]ncc12 | – | – | – | – | – | – | 80 | –
3 | Cc1cc(C=O)c(O)c2ccccc12 | 23 | 27 | 41 | 41 | 24 | 25 | – | –
4 | OC[C@@H](O)[C@@H](O)[C@H](O)[C@H](O)CO | – | – | – | – | – | – | – | 52
5 | Cc1ccc(C)c(OCCCC(C)(C)C(=O)O)c1 [GEMFIBROZIL] | 35 | – | – | – | 34 | 38 | – | –
6 | Cc1c(C)c2c(c(C)c1O)CC[C@@](C)(CCC[C@H](C)CCC[C@H](C)CCCC(C)C)O2 | – | – | – | – | – | – | – | 47

From ChEMBL document CHEMBL1177776, “Novel coumarin derivatives as potential antidyslipidemic agents” (2010)
